Experimental data: patent US20240150377A1, “MODULATORS OF CYSTIC FIBROSIS TRANSMEMBRANE CONDUCTANCE REGULATOR” (VERTEX PHARMACEUTICALS INCORPORATED, priority 2020, published 2024)
Read-outs that look alike come from different tables or passages of the source.

Legend:
[1] = 13-membered ring
CFTR [2] = target: CFTR (Homo sapiens, UniProt P13569); test: Membrane potential dye, Enteroid Assay A; assay type: cell-based; conditions: Table 6; for Ent. A Max Activity: chloride transport as % of triple combination control (Enteroid Assay A); for EC50: human enteroid cells, 18-24 hours, acute 10 μM forskolin and 300 nM ivacaftor, read-out: Ent. A EC50
In short: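 % Activity: chloride transport relative to a 3 μM/3 μM corrector pair plus 300 nM acute potentiator control. Primary human enteroid cells, 18-24 h compound exposure at 37 °C; membrane potential dye (methyl oxonol) fluorescence over 15 min after forskolin (10 μM)/IBMX (100 μM)/Compound III (300 nM) stimulation in chloride-free buffer.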

CFTR [3] = target: T1, CFTR (Homo sapiens, UniProt P13569, DEL508-508); test: HBE assay: Ussing chamber assay of CFTR-mediated short-circuit currents; assay type: cell-based; conditions: for EC50: read-out: HBE EC50
T1 construct: endogenous in cells; host or cells: primary human bronchial epithelial cells from CF subjects (F508del/MF-HBE), differentiated at air-liquid interface
In short: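 CFTR-mediated Isc (μA/cm²) equals the peak response to apical 20 μM forskolin minus the residual after a 20 μM each BPO/GlyH-101/CFTR inhibitor 172 cocktail, recorded in Ussing chambers at Vhold 0 mV, 37 °C, pH 7.4, with 30 μM apical amiloride. Cells were F508del/MF HBE cultures preincubated 18-24 h with corrector (concentration range or 10 μM) plus 1 μM ivacaftor in 20% human serum.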

CFTR [4] = target: T1, CFTR; test: HBE2 assay: Ussing chamber assay of CFTR-mediated short-circuit currents; assay type: cell-based; conditions: F508del/MF-HBE cells, with 44 nM potentiator, 18-24 hours, 20% human serum
In short: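 Corrector activity read as CFTR-dependent ISC (μA/cm^2): peak forskolin current minus post-inhibitor steady state. Measured at 37 °C, voltage clamp at 0 mV, on F508del/MF-HBE epithelia grown >14 days air-liquid interface in Ussing chambers.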

[5] = HBE assay, read-out: HBE Max activity (%)

CFTR (Homo sapiens, UniProt P13569), sequence (P13569 with tags, fused parts or gaps DEL508-508): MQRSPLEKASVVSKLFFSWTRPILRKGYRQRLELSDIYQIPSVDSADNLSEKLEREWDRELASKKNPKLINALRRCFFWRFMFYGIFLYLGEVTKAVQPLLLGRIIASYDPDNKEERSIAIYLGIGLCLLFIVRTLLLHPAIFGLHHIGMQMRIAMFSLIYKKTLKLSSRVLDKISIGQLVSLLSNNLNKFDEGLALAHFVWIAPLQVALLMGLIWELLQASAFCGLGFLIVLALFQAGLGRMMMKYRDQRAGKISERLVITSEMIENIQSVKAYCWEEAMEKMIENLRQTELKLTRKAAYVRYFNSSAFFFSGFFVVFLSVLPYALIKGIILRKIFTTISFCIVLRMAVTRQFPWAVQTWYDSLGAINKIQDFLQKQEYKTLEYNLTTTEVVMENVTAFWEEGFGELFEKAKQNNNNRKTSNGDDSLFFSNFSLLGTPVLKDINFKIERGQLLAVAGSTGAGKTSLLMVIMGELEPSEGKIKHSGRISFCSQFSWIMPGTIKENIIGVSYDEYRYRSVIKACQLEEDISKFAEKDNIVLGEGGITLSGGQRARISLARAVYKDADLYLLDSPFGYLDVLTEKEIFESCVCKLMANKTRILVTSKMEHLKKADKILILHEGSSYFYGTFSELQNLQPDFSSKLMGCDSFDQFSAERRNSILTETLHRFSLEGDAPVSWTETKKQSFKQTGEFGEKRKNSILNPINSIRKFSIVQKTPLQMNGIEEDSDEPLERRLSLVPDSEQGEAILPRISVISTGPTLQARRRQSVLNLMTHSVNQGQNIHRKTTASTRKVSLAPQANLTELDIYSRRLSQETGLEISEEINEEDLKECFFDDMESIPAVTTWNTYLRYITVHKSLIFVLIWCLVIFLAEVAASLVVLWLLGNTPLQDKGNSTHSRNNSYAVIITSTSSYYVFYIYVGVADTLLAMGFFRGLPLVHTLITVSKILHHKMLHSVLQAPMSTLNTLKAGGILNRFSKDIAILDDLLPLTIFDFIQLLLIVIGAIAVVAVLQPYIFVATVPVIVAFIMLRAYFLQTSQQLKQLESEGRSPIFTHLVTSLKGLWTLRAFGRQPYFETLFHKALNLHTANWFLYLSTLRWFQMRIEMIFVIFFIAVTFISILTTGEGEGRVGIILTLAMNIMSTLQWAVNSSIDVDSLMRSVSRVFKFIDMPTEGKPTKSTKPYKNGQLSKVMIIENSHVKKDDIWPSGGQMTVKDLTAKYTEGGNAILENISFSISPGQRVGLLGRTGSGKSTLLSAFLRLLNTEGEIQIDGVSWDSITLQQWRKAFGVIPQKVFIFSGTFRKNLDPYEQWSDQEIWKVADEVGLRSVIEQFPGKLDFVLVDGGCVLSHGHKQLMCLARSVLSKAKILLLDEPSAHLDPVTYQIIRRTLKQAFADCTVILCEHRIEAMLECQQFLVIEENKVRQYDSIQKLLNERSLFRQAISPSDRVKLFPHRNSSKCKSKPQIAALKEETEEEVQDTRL
T1 sequence (P13569 with tags, fused parts or gaps DEL508-508): as above

Cc1cccc(C)c1-c1cc2nc(n1)NS(=O)(=O)c1cccc(c1)C(=O)N(CC1CC3(CCN(C(=O)OC(C)(C)C)CC3)C1)[C@H](CC(C)C)CO2
ring closure, isolated yield ([1]; from Cc1cccc(C)c1-c1cc(OC[C@@H](CC(C)C)NCC2CC3(CCN(C(=O)OC(C)(C)C)CC3)C2)nc(NS(=O)(=O)c2cccc(C(=O)O)c2)n1, amide bond, HATU/DIEA, DMF, 9.3 mM, 25.0 °C, 2.0 h, 2 steps): 33%

Cc1cccc(C)c1-c1cc2nc(n1)NS(=O)(=O)c1cccc(c1)C(=O)N(CCC1(C(F)(F)F)CC1)[C@@H]1CN(C(=O)OC(C)(C)C)C[C@H]1O2
ring closure, isolated yield ([1]; from Cc1cccc(C)c1-c1cc(O[C@@H]2CN(C(=O)OC(C)(C)C)C[C@H]2NCCC2(C(F)(F)F)CC2)nc(NS(=O)(=O)c2cccc(C(=O)O)c2)n1, amide bond, COMU/DIEA, DMF, 10.6 mM, 72.0 h): 92%

Cc1cccc(C)c1-c1cc2nc(n1)NS(=O)(=O)c1cccc(c1)C(=O)N(CCC1CCN(C(=O)OC(C)(C)C)CC1)[C@H](CC(C)C)CO2
ring closure, isolated yield ([1]; from Cc1cccc(C)c1-c1cc(OC[C@@H](CC(C)C)NCCC2CCN(C(=O)OC(C)(C)C)CC2)nc(NS(=O)(=O)c2cccc(C(=O)O)c2)n1, amide bond, HATU/TEA, DMF, 125.0 mM, 25.0 °C, 1.0 h, 2 steps): 94%

Cc1cccc(C)c1-c1cc2nc(n1)NS(=O)(=O)c1cccc(c1)C(=O)N(CCCO[Si](C)(C)C(C)(C)C)[C@H](CC(C)C)CO2
ring closure, isolated yield ([1]; from Cc1cccc(C)c1-c1cc(OC[C@@H](CC(C)C)NCCCO[Si](C)(C)C(C)(C)C)nc(NS(=O)(=O)c2cccc(C(=O)O)c2)n1, amide bond, COMU/DIEA, DMF, 19.9 mM, 22.0 h): 43%

Cc1cccc(C)c1-c1cc2nc(n1)NS(=O)(=O)c1cccc(c1)C(=O)N(Cc1ccc3c(I)cn(C)c3n1)[C@H](CC(C)(C)C)CO2
ring closure, isolated yield ([1]; from Cc1cccc(C)c1-c1cc(OC[C@@H](CC(C)(C)C)NCc2ccc3c(I)cn(C)c3n2)nc(NS(=O)(=O)c2cccc(C(=O)O)c2)n1, amide bond, 2-chloro-1-methylpyridinium iodide/DIEA, DMF, 35.1 mM, 16.0 h): 61%

Cc1cccc(C)c1-c1cc2nc(n1)NS(=O)(=O)c1cccc(c1)C(=O)N(Cc1ccc3cc(I)n(C)c3n1)[C@H](CC(C)(C)C)CO2
ring closure, isolated yield ([1]; from Cc1cccc(C)c1-c1cc(OC[C@@H](CC(C)(C)C)NCc2ccc3cc(I)n(C)c3n2)nc(NS(=O)(=O)c2cccc(C(=O)O)c2)n1, amide bond, 2-chloro-1-methylpyridinium iodide/DIEA, DMF, 41.5 mM, 16.0 h): 72%

Cc1cccc(C)c1-c1cc2nc(n1)NS(=O)(=O)c1cccc(c1)C(=O)N(Cc1cccc(NC(=O)OC(C)(C)C)n1)[C@H](CC(C)(C)C)CO2
ring closure, isolated yield ([1]; from Cc1cccc(C)c1-c1cc(OC[C@@H](CC(C)(C)C)NCc2cccc(NC(=O)OC(C)(C)C)n2)nc(NS(=O)(=O)c2cccc(C(=O)O)c2)n1, amide bond, HATU/DIEA, DMF, 16.0 h, 2 steps): 31%

Cc1cccc(C)c1-c1cc2nc(n1)NS(=O)(=O)c1cccc(c1)C(=O)N(Cc1cncc(Cl)n1)[C@H](CC(C)(C)C)CO2
ring closure, isolated yield ([1]; from Cc1cccc(C)c1-c1cc(OC[C@@H](CC(C)(C)C)NCc2cncc(Cl)n2)nc(NS(=O)(=O)c2cccc(C(=O)O)c2)n1, amide bond, CDMT/NMM, DMF, 12.4 mM, 25.0 °C, 16.5 h): 56%

Cc1cccc(C)c1-c1cc2nc(n1)NS(=O)(=O)c1cccc(c1)C(=O)N(Cc1cncc(Cl)n1)[C@H](CC1CCCCC1)CO2
ring closure, isolated yield ([1]; from Cc1cccc(C)c1-c1cc(OC[C@@H](CC2CCCCC2)NCc2cncc(Cl)n2)nc(NS(=O)(=O)c2cccc(C(=O)O)c2)n1, amide bond, CDMT/NMM, DMF, 20.4 mM, 16.2 h): 73%

Cc1cccc(C)c1-c1cc2nc(n1)NS(=O)(=O)c1cccc(c1)C(=O)N(Cc1cncc(Cl)n1)[C@H](COC1CC1)CO2
ring closure, isolated yield ([1]; from Cc1cccc(C)c1-c1cc(OC[C@@H](COC2CC2)NCc2cncc(Cl)n2)nc(NS(=O)(=O)c2cccc(C(=O)O)c2)n1, amide bond, CDMT/NMM, DMF, 12.9 mM, 21.0 h): 97%

Cc1cccc(C)c1-c1cc2nc(n1)NS(=O)(=O)c1cccc(c1)C(=O)N(Cc1cncc(N(C)C3CCC3)n1)C1(CCC(C)(C)C1)CO2 (centres unmarked)
ring closure, isolated yield ([1]; from Cc1cccc(C)c1-c1cc(OCC2(NCc3cncc(N(C)C4CCC4)n3)CCC(C)(C)C2)nc(NS(=O)(=O)c2cccc(C(=O)O)c2)n1, amide bond, CDMT/NMM, DMF, 18.1 mM, 120.0 h): 36%

Cc1cccc(C)c1-c1cc2nc(n1)NS(=O)(=O)c1cccc(c1)C(=O)N(Cc1cncc(N3CCCC[C@H]3C)n1)C(CCC(C)(C)F)CO2 (some centres unmarked)
ring closure, isolated yield ([1]; from Cc1cccc(C)c1-c1cc(OCC(CCC(C)(C)F)NCc2cncc(N3CCCC[C@H]3C)n2)nc(NS(=O)(=O)c2cccc(C(=O)O)c2)n1, amide bond, CDMT/NMM, DMF, 19.8 mM, 16.0 h): 54%

Cc1cccc(C)c1-c1cc2nc(n1)NS(=O)(=O)c1cccc(c1)CN(C(=O)OC(C)(C)C)[C@H](CC(C)C)CO2
ring closure, isolated yield ([1]; from Cc1cccc(C)c1-c1cc(OC[C@@H](CC(C)C)NC(=O)OC(C)(C)C)nc(NS(=O)(=O)c2cccc(COS(C)(=O)=O)c2)n1, amine bond, NaH, DMF, 3.92 mM, 25.0 °C): 50%

Cc1cccc(C)c1-c1cc2nc(n1)NS(=O)(=O)c1cccc(c1)C(=O)N(C)CC(c1ccc(Br)cc1)O2 (centres unmarked) [Compound 8, 10-(4-Bromophenyl)-6-(2,6-dimethylphenyl)-12-methyl-2,2-dioxo-9-oxa-2λ^6-thia-3,5,12,19-tetrazatricyclo[12.3.1.14,8]nonadeca-1(18),4(19),5,7,14,16-hexaen-13-one]
ring closure, isolated yield ([1]; from CNCC(Oc1cc(-c2c(C)cccc2C)nc(NS(=O)(=O)c2cccc(C(=O)O)c2)n1)c1ccc(Br)cc1, amide bond, HATU/DIEA, DMF, 29.7 mM, 25.0 °C, 2.0 h, 2 steps): 61% | Ent. A Max Activity (CFTR [2]): +++ (+++ is >60%) | EC50 (CFTR [2]): < 1 µM

Cc1cccc(C)c1-c1cc2nc(n1)NS(=O)(=O)c1cccc(c1)C(=O)N(C)CC(CNC(=O)OC(C)(C)C)O2 (centres unmarked) [Compound 97, tert-Butyl N-[[6-(2,6-dimethylphenyl)-12-methyl-2,2,13-trioxo-9-oxa-2λ^6-thia-3,5,12,19-tetrazatricyclo[12.3.1.14,8]nonadeca-1(18),4(19),5,7,14,16-hexaen-10-yl]methyl]carbamate]
ring closure, isolated yield ([1]; from CNCC(CNC(=O)OC(C)(C)C)Oc1cc(-c2c(C)cccc2C)nc(NS(=O)(=O)c2cccc(C(=O)O)c2)n1, amide bond, HATU/DIEA, DMF, 37.9 mM, 25.0 °C, 0.25 h): 42% | Ent. A Max Activity (CFTR [2]): ++ (++ is 30-60%) | EC50 (CFTR [2]): 3 to 30 µM

Cc1cccc(C)c1-c1cc2nc(n1)NS(=O)(=O)c1cccc(c1)C(=O)N(Cc1ncc(N3CC(C)(C)C3)cn1)[C@H](CC(C)(C)C)CO2 [Compound 331]
ring closure, isolated yield ([1]; from Cc1cccc(C)c1-c1cc(OC[C@@H](CC(C)(C)C)NCc2ncc(N3CC(C)(C)C3)cn2)nc(NS(=O)(=O)c2cccc(C(=O)O)c2)n1, amide bond, T3P/DIEA, MeCN, 34.5 mM, 0.0 °C, 2.5 h): 53% | EC50 (CFTR [3]; Table 11): < 1 µM | Emax (CFTR [3]; Table 11, read-out: HBE Max Activity (%)): > 60%

Cc1cccc(C)c1-c1cc2nc(n1)NS(=O)(=O)c1cccc(c1)C(=O)N(Cc1ncc(OC(C)C)cn1)[C@H](CCC(C)(C)C)CO2 [Compound 1296, (11R)-11-(3,3-Dimethylbutyl)-6-(2,6-dimethylphenyl)-12-[(5-isopropoxypyrimidin-2-yl)methyl]-2,2-dioxo-9-oxa-2λ^6-thia-3,5,12,19-tetrazatricyclo[12.3.1.14,8]nonadeca-1(18),4(19),5,7,14,16-hexaen-13-one]
ring closure, isolated yield ([1]; from Cc1cccc(C)c1-c1cc(OC[C@@H](CCC(C)(C)C)NCc2ncc(OC(C)C)cn2)nc(NS(=O)(=O)c2cccc(C(=O)O)c2)n1, amide bond, CDMT/NMM, DMF, 29.6 mM, 21.0 h): 60% | EC50 (CFTR [3]; HBE assay): < 1 µM | Emax (CFTR [3]; [5]): > 60% | HBE2 Activity at 3 μM (%) (CFTR [4]): +++ (+++ is >60+)

Cc1cccc(C)c1-c1cc2nc(n1)NS(=O)(=O)c1cccc(c1)C(=O)N(Cc1ncc(OC(C)C)cn1)[C@H](CC1CCC1)CO2 [Compound 1297, (11R)-11-(Cyclobutylmethyl)-6-(2,6-dimethylphenyl)-12-[(5-isopropoxypyrimidin-2-yl)methyl]-2,2-dioxo-9-oxa-2λ^6-thia-3,5,12,19-tetrazatricyclo[12.3.1.14,8]nonadeca-1(18),4(19),5,7,14,16-hexaen-13-one]
ring closure, isolated yield ([1]; from Cc1cccc(C)c1-c1cc(OC[C@@H](CC2CCC2)NCc2ncc(OC(C)C)cn2)nc(NS(=O)(=O)c2cccc(C(=O)O)c2)n1, amide bond, CDMT/NMM, DMF, 30.4 mM, 15.0 h): 58% | EC50 (CFTR [3]; HBE assay): < 1 µM | Emax (CFTR [3]; [5]): > 60% | HBE2 Activity at 3 μM (%) (CFTR [4]): +++ (+++ is >60+) | EC50 (CFTR [4]): < 1 µM | Emax (CFTR [4]; read-out: HBE2 Max activity (%)): > 60%
